Data as given in publication PMC6332353, “New Sulphated Flavonoids from Wissadula periplocifolia (L.) C. Presl (Malvaceae)” (Molecules, 2015).
In brackets after ≈: the same amount, converted by molar mass.

Assays:
[1] = system: normal prostate epithelial cell line (PNT2A); experiment: alamarBlue cytotoxicity assay, PNT2A cells; assay type: cell-based; details: Homo sapiens, 24 h treatment, 0.4–100 µg/mL, mean ± SD
From the text: (§1) All media and supplements were obtained from Invitrogen (Paisley, UK). The following human cell lines were used in the current study: the human glioma cancer cell line (UVW) previously described, the prostate carcinoma cell line (PC-3M), the normal prostate epithelial cell line (PNT2A), and the normal foreskin fibroblast cell line (Hs27). All cell lines were obtained from in house stocks (UVW) or from stocks purchased from the ATCC (Rockville, MD, USA) and are routinely genetically verified and confirmed as free from mycoplasma contamination. UVW, PNT2A, and Hs27 cells were maintained in Eagle’s Minimum Essential Medium (MEM), RPMI 1640 Medium, and Dulbecco’s Modified Eagle’s Medium (DMEM), respectively. All media were supplemented with 10% v/v fetal bovine serum, penicillin (100 units/mL), streptomycin (100 μg/mL), Fungizone (2.5 μg/mL of amphotericin B), and L-glutamine (2 mM). The PC-3M cells were cultured in the same MEM medium as described for UVW cells with the addition of 1% v/v MEM Non-essential Amino Acids Solution, 1% v/v MEM Vitamin Solution, and 1mM sodium pyruvate. The cells were cultured at 37 °C in a humidified atmosphere of 5% CO2.
(§2) Each sample tested was dissolved in DMSO at 50 mg/mL and kept at −20 °C until extract preparation was proceeded. For the biological assays, the samples were diluted in culture medium to get the selected concentrations. The toxicity of the flavonoids on UVW, PC-3M, PNT2A, and Hs27 cells was assessed by the fluorometric measurement of metabolic activity using the AlamarBlue assay (Invitrogen). Briefly, cells were seeded on 96-well culture plates (3.3 × 10^3cells/well). […] Fluorescence was measured on a micro plate fluorescence reader (Spectramax Gemini XS, Molecular Devices, Sunnyvale, CA, USA) using an excitation wavelength of 560 nm and an emission wavelength of 590 nm. Cell viability was calculated and plotted as the percentage of metabolically active cells relative to the control. […]

[2] = system: human glioma cancer cell line (UVW); experiment: alamarBlue cytotoxicity assay, UVW cells; assay type: cell-based; details: tumour cell line, 24 h treatment, 0.4–100 µg/mL, mean ± SD
From the text: as §1, §2

[3] = system: prostate carcinoma cell line (PC-3M); experiment: alamarBlue cytotoxicity assay, PC-3M cells; assay type: cell-based; details: Homo sapiens, tumour cell line, 24 h treatment, 0.4–100 µg/mL, mean ± SD
From the text: as §1, §2

[4] = system: normal foreskin fibroblast cell line (Hs27); experiment: alamarBlue cytotoxicity assay, Hs27 cells; assay type: cell-based; details: Homo sapiens, 24 h treatment, 0.4–100 µg/mL, mean ± SD
From the text: All media and supplements were obtained from Invitrogen (Paisley, UK). The following human cell lines were used in the current study: the human glioma cancer cell line (UVW) previously described, the prostate carcinoma cell line (PC-3M), the normal prostate epithelial cell line (PNT2A), and the normal foreskin fibroblast cell line (Hs27). All cell lines were obtained from in house stocks (UVW) or from stocks purchased from the ATCC (Rockville, MD, USA) and are routinely genetically verified and confirmed as free from mycoplasma contamination. UVW, PNT2A, and Hs27 cells were maintained in Eagle’s Minimum Essential Medium (MEM), RPMI 1640 Medium, and Dulbecco’s Modified Eagle’s Medium (DMEM), respectively. All media were supplemented with 10% v/v fetal bovine serum, penicillin (100 units/mL), streptomycin (100 μg/mL), Fungizone (2.5 μg/mL of amphotericin B), and L-glutamine (2 mM). […] The toxicity of the flavonoids on UVW, PC-3M, PNT2A, and Hs27 cells was assessed by the fluorometric measurement of metabolic activity using the AlamarBlue assay (Invitrogen). […] Fluorescence was measured on a micro plate fluorescence reader (Spectramax Gemini XS, Molecular Devices, Sunnyvale, CA, USA) using an excitation wavelength of 560 nm and an emission wavelength of 590 nm. Cell viability was calculated and plotted as the percentage of metabolically active cells relative to the control. […]

lung cancer A549 = system: lung cancer A549; parameters: method as in PMID 25000464; details: cited from earlier work
sarcoma 180 = system: sarcoma 180; parameters: method as in earlier work; details: tumours implanted in mice; cited from earlier work
[5] = system: carcinoma of Ehrlich tumours; parameters: method as in earlier work; details: tumours implanted in mice; cited from earlier work

Row | Compound | IC50 [1] | IC50 [2] | IC50 [3] | IC50 [4] | toxic effects on A549 cells (in words) (lung cancer A549) | tumour growth inhibition, sarcoma 180 (sarcoma 180) | tumour growth inhibition, carcinoma of Ehrlich [5]
1 | COc1ccc(-c2cc(=O)c3c(O)cc(OC)c(O)c3o2)cc1 [7,4′-di-O-methylisoscutellarein] | 88.7 ± 1.13 µg/mL (≈ 282 µM) | 98.5 ± 1.13 µg/mL (≈ 314 µM) | > 100 µg/mL | – | – | – | –
2 | COc1ccc(-c2cc(=O)c3c(O)cc(O)cc3o2)cc1 [acacetin] | 51.3 ± 1.09 µg/mL (≈ 181 µM) | 27.4 ± 1.09 µg/mL (≈ 96.3 µM) | 21.1 ± 1.16 µg/mL (≈ 74.3 µM) | > 100 µg/mL | – | – | –
3 | O=C(/C=C/c1ccc(O)cc1)OC[C@H]1O[C@@H](Oc2c(-c3ccc(O)cc3)oc3cc(O)cc(O)c3c2=O)[C@H](O)[C@@H](O)[C@@H]1O [tiliroside, kaempferol-3-O-b-D-(6′′-E-p-coumaroyl) glucopyranoside] | > 100 µg/mL | > 100 µg/mL | 60.5 ± 1.12 µg/mL (≈ 102 µM) | – | toxic effects | significantly inhibited the growth | significantly inhibited the growth
